Measured values from PubChem BioAssay (NCI).
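All cell lines were grown in 96-well plates and treated with compound for 48 hours. TGI marks complete inhibition of growth.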

Experiments:
Experiment in all cases: NCI tumour cell line growth inhibition, 48 h
[1] = system: HCT-116 colon
[2] = system: SR leukemia
[3] = system: OVCAR-8 ovarian
[4] = system: SF-539 CNS
[5] = system: HS 578T breast
[6] = system: SNB-75 CNS
[7] = system: HOP-92 NSCLC
[8] = system: OVCAR-3 ovarian
[9] = system: MDA-N
[10] = system: SW-620 colon
[11] = system: HT29 colon
[12] = system: UACC-62 melanoma
[13] = system: DLD-1 colon
[14] = system: RXF 393 renal
[15] = system: DMS 114 small cell lung
[16] = system: SK-MEL-28 melanoma
[17] = system: HCC-2998 colon
[18] = system: K-562 leukemia
[19] = system: NCI-H460 lung
[20] = system: OVCAR-4 ovarian
[21] = system: CAKI-1 renal
[22] = system: KM20L2 colon
[23] = system: SN12C renal
[24] = system: U251 CNS
[25] = system: NCI-H522 lung
[26] = system: HOP-18 NSCLC
[27] = system: T-47D breast
[28] = system: HL-60(TB) leukemia
[29] = system: SK-MEL-2 melanoma
[30] = system: KM12 colon
[31] = system: UO-31 renal
[32] = system: HOP-62 NSCLC
[33] = system: SK-OV-3 ovarian
[34] = system: HCT-15 colon
[35] = system: SNB-19 CNS
[36] = system: SK-MEL-5 melanoma
[37] = system: IGROV1 ovarian
[38] = system: MCF7 breast
[39] = system: OVCAR-5 ovarian
[40] = system: COLO 205 colon
[41] = system: BT-549 breast
[42] = system: SNB-78 CNS
[43] = system: DU-145 prostate
[44] = system: ACHN renal
[45] = system: NCI/ADR-RES ovarian
[46] = system: SF-295 CNS
[47] = system: MOLT-4 leukemia
[48] = system: RPMI-8226 leukemia
[49] = system: DMS 273 small cell lung
[50] = system: XF 498 CNS
[51] = system: LXFL 529 NSCLC
[52] = system: CCRF-CEM leukemia
[53] = system: PC-3 prostate
[54] = system: TK-10 renal
[55] = system: A549 NSCLC
[56] = system: LOX IMVI melanoma
[57] = system: NCI-H23 lung
[58] = system: SF-268 CNS
[59] = system: EKVX NSCLC
[60] = system: NCI-H226 lung
[61] = system: MDA-MB-231 breast
[62] = system: MDA-MB-435
[63] = system: UACC-257 melanoma
[64] = system: MALME-3M melanoma
[65] = system: M14 melanoma
[66] = system: A498 renal
[67] = system: 786-0 renal
[68] = system: M19-MEL melanoma

COc1cc(NS(C)(=O)=O)ccc1Nc1c2ccccc2nc2c1[nH]c1ccc(NC3OC(CO)C(O)C(O)C3O)cc12 (stereo not drawn)
TGI [1]: 1.43 µM
TGI [2]: > 100 µM
TGI [3]: 0.95 µM
TGI [4]: 0.0405 µM
TGI [5]: 4.29 µM
TGI [6]: 0.388 µM
TGI [7]: 1.04 µM
TGI [8]: 2 µM
TGI [9]: 2.71 µM
TGI [10]: 2.08 µM
TGI [11]: 0.938 µM
TGI [12]: 1.08 µM
TGI [13]: 1.93 µM
TGI [14]: 0.61 µM
TGI [15]: 0.0784 µM
TGI [16]: 1.96 µM
TGI [17]: 0.809 µM
TGI [18]: 20.3 µM
TGI [19]: 0.196 µM
TGI [20]: 4.66 µM
TGI [21]: 0.091 µM
TGI [22]: 1.87 µM
TGI [23]: 0.387 µM
TGI [24]: 0.332 µM
TGI [25]: 0.387 µM
TGI [26]: 1.65 µM
TGI [27]: 15.7 µM
TGI [28]: 0.282 µM
TGI [29]: 1.36 µM
TGI [30]: 1.21 µM
TGI [31]: 1.19 µM
TGI [32]: 0.208 µM
TGI [33]: 0.299 µM
TGI [34]: 2.14 µM
TGI [35]: 1.46 µM
TGI [36]: 1.31 µM
TGI [37]: 3.47 µM
TGI [38]: 10.1 µM
TGI [39]: 2.09 µM
TGI [40]: 2.76 µM
TGI [41]: 5.69 µM
TGI [42]: 9.3 µM
TGI [43]: 0.245 µM
TGI [44]: 0.137 µM
TGI [45]: 45.8 µM
TGI [46]: 0.13 µM
TGI [47]: 3.65 µM
TGI [48]: 3.85 µM
TGI [49]: 0.261 µM
TGI [50]: 0.832 µM
TGI [51]: 2.46 µM
TGI [52]: 3.12 µM
TGI [53]: 3.6 µM
TGI [54]: 0.7 µM
TGI [55]: 0.235 µM
TGI [56]: 1.18 µM
TGI [57]: 0.27 µM
TGI [58]: 1.51 µM
TGI [59]: 4.98 µM
TGI [60]: 0.201 µM
TGI [61]: 8.11 µM
TGI [62]: 7.06 µM
TGI [63]: 11 µM
TGI [64]: 1.43 µM
TGI [65]: 0.971 µM
TGI [66]: 0.881 µM
TGI [67]: 0.339 µM
TGI [68]: 1.75 µM
